Data reported in patent US10973835B2, “Boron-containing small molecules for inhibiting activity of a receptor-like protein tyrosine phosphatase” (The Penn State Research Foundation, priority 2017, dated 2021).
Entries after “also recorded” stand apart in the source; their conditions may differ. Like-named read-outs stand apart in the source and are kept apart here. Blank lines part the entries; values can stand above or below the molecule they belong to.

How the values were obtained:
[1] = target: LAR-oxidized (Leukocyte common antigen-related, LAR) (Homo sapiens, UniProt P10586); test: RPTP assay, standard assay conditions: phosphatase activity of oxidized LAR (DiFMUP substrate, TCEP reduction); type: biochemical
Chain of LAR-oxidized (Leukocyte common antigen-related, LAR) (P10586 30-1907): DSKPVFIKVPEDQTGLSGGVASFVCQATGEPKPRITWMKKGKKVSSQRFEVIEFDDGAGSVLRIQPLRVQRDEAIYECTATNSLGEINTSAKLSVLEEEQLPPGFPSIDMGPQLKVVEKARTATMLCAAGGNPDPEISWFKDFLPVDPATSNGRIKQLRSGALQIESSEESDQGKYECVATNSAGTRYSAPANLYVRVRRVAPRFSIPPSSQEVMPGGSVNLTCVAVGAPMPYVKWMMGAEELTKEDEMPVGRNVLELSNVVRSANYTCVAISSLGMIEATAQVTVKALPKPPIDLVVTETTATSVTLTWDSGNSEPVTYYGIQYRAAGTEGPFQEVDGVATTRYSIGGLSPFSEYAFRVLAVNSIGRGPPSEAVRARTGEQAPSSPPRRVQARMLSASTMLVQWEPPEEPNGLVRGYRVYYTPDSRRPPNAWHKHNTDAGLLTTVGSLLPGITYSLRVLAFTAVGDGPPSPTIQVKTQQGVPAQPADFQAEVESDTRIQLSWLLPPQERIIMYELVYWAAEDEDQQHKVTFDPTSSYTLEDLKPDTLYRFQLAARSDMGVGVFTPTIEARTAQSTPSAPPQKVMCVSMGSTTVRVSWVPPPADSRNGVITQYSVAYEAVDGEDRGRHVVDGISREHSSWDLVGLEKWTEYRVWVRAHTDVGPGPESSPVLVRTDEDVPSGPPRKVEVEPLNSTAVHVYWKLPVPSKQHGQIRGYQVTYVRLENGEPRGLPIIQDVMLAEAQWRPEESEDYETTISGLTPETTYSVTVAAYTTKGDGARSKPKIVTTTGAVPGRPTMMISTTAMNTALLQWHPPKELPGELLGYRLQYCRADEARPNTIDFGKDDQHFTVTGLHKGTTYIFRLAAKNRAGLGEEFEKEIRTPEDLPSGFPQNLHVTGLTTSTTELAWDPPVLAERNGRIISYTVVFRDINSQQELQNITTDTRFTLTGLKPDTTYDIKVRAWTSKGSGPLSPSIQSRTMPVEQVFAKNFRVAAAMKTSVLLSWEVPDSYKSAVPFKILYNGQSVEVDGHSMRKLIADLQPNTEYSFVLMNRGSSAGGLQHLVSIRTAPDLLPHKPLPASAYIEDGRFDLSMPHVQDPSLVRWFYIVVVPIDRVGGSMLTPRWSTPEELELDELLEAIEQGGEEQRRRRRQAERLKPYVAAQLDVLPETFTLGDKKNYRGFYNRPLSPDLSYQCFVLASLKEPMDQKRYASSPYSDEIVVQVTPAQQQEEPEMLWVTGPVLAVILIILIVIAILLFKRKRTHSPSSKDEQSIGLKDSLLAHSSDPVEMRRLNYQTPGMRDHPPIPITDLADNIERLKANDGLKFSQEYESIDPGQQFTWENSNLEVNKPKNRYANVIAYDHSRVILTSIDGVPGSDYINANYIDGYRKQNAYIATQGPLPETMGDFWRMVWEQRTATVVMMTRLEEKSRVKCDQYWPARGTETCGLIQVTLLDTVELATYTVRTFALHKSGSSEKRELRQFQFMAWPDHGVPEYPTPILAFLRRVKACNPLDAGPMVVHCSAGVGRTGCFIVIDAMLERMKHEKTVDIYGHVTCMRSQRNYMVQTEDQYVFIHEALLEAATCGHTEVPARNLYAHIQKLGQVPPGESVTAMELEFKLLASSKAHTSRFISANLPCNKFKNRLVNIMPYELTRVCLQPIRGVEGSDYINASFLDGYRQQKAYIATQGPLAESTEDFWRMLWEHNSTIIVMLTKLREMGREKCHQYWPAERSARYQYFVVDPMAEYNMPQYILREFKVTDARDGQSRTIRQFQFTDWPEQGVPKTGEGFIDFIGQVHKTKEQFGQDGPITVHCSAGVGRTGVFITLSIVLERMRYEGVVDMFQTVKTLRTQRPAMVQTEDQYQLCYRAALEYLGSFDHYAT
Description: (§1) Leukocyte common antigen-related (LAR) and PTPσ were used as illustrative type IIa RPTPs. Illustratively, purified LAR (100 nM) was mixed with H2O2 (2 mM) in phosphatase assay buffer (50 mM HEPES, pH 7.0, 100 mM NaCl, 0.1% BSA) at room temperature for 10 minutes. Excess H2O2 was removed with a Zeba™ Desalting Column (Thermo Scientific) equilibrated in the assay buffer without any reducing agent. Phosphatase activity was measured for each protein sample using 6,8-difluoro-4-methylumbiliferyl phosphate (DiFMUP) as the substrate, with or without 5 mM Tris(2-carboxyethyl)phosphine hydrochloride (TCEP). Activity of the oxidized sample was compared to that of the untreated (unoxidized) sample in the presence of 5 mM TCEP.
(§2) LAR-OX (10 nM) was incubated with compounds (0.1 mM) for varying lengths of time and the phosphatase activity was monitored using DiFMUP as substrate following reduction of the PTP with TCEP (5 mM). TCEP was not removed before adding DiFMUP. DiFMUP was added right after TCEP and the activity was followed continuously for 60 minutes. […] The above protocol was used to test the activity of other phosphatases (PTP1B, PTPσ, SHP2, PTPα, PTEN, and JSP1).

PTPσ-oxidized = PTPσ-oxidized (Homo sapiens, UniProt Q13332); test: RPTP assay, standard assay conditions: phosphatase activity of oxidized PTPσ; type: biochemical
Chain of PTPσ-oxidized (Q13332 30-1948): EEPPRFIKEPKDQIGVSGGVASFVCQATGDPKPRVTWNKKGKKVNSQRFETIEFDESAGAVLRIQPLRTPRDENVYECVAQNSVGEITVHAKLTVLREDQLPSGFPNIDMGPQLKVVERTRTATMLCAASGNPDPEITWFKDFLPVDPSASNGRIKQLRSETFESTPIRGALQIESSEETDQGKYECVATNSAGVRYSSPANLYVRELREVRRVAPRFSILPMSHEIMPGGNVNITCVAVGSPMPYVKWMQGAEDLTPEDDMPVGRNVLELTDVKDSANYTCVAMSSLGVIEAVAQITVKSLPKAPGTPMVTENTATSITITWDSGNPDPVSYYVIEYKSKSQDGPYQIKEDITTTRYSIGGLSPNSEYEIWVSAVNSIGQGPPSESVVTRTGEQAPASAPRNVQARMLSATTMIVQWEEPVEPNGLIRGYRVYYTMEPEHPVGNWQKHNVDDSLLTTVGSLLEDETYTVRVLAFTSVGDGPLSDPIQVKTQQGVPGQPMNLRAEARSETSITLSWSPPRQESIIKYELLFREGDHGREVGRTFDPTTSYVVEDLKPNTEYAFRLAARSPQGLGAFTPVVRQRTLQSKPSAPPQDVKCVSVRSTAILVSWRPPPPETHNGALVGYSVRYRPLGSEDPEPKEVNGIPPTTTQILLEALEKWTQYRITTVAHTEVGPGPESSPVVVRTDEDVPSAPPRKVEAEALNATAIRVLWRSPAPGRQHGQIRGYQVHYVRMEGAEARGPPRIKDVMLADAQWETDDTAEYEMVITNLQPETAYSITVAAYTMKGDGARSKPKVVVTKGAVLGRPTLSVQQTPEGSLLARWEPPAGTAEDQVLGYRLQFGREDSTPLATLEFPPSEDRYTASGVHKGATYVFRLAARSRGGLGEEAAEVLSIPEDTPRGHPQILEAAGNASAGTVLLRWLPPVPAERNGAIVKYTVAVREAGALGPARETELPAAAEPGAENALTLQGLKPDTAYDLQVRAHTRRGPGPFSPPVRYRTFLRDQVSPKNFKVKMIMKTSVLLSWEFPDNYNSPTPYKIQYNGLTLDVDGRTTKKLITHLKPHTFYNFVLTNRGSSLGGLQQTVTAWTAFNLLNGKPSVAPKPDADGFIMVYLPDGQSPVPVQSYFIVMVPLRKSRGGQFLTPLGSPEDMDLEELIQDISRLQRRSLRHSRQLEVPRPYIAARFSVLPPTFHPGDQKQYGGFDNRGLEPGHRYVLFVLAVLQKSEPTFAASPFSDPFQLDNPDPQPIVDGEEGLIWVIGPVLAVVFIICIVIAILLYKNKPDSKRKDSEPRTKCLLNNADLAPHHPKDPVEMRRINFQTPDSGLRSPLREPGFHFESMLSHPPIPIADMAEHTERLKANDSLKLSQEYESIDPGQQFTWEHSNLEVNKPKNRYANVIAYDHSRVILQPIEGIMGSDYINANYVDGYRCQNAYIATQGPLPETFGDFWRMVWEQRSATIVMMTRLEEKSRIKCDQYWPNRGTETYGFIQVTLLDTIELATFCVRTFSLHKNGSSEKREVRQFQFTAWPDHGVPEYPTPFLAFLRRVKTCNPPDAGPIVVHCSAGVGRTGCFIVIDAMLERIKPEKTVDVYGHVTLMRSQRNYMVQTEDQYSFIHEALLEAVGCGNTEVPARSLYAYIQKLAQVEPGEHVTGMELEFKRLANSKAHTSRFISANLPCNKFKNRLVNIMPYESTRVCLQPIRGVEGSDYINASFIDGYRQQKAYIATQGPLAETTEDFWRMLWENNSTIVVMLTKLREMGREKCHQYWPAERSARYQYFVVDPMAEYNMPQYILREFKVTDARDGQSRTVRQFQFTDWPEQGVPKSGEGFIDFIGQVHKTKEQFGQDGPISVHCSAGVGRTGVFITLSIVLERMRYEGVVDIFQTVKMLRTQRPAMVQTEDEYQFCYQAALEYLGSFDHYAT
Description: as §1, §2

[2] = system: MuSK phosphorylation (LAR dephosphorylating MuSK) in C2C12 myotubes; test: MuSK tyrosine phosphorylation in agrin-stimulated C2C12 myotubes (anti-pTyr immunoprecipitation, anti-MuSK blot); type: cell-based, mouse
Description: C2C12 cells serum starved (8 hours) and then treated with CL-37 for 1 hour. Following which, cells were stimulated with Agrin (10 nM) for varying lengths of time (0-60 minutes). The cells were lysed and lysates were used to immunoprecipitate tyrosine phosphorylated proteins using 4G10® (05-321 from EMD Milliooire Corp. and PY20 (such as ab10321 fromabcam Plc) antibodies for 90 minutes at 4 C. The immunocomplexes were washed and resolved on SDS gels and immunoblotted using anti-MUSK antibody. For the immunoprecipitation experiments, 1 mg of total cell lysate was incubated with anti-pTyr antibodies at 4° C. for 90 minutes. The interacting protein complexes were immunoprecipitated after incubating the lysate-antibody mixture with protein A/G Sepharose® at 4° C. for 30 minutes. After immunoprecipitation, Sepharose® beads were washed three times at 4° C. with wash buffer (PBS, pH 7.4, 0.05% BSA, 0.05% Tween®-20 and protease inhibitors). Complexes were separated by SDS-PAGE and immunoblotted using anti-MUSK antibody.

C2C12 cells = test: Cell vitality under the MuSK phosphorylation experimental condition; type: cell-based, mouse; conditions: C2C12, experimental condition of FIG. 3
[3] = Stability of difluoroborate compounds using 19F and 11B NMR; conditions: acetonitrile-d3 alone and 80% acetonitrile-d3/20% D2O; up to seven days; room temperature
[4] = Table 3, Formula IV, read-out: LAR-ox Ki
[5] = Table 2, Formula III, R1 and R2 para to boron, read-out: LAR-ox Ki
[6] = FIG. 1, oxidized form, 0.1 to 100 μM compound
[7] = Table 1, Formula II, potassium salt, R1 and R2 para to boron, read-out: LAR-ox Ki
[8] = FIG. 4, assay similar to FIG. 3, agrin stimulation

SMILES: C=CB(O)c1ccccc1 [CL-49]
Ki ([1]; read-out: LAR-oxidized Ki): > 1000 µM

SMILES: OB(c1ccccc1)c1ccccc1 [CL-30]
Ki [1, 5]: 20 µM

SMILES: Nc1ccc2c(c1)COB2O [Compound B-2]
Ki ([1]; read-out: LAR-oxidized Ki): > 1000 µM | Ki (PTPσ-oxidized; read-out: PTPσ-oxidized Ki): > 1000 µM

SMILES: F[B-](F)(c1ccccc1)c1ccccc1 [CL-37]
phosphatase activity of LAR (inhibition) [1, 6]: most actively inhibited | Ki [1, 7]: 5 µM | phosphorylation level of MuSK versus control ([2]; FIG. 3, CL-37 5 μM, 1 hour pretreatment, agrin 10 nM, 0-60 minutes): significantly higher than the control; also recorded: inhibits LAR from dephosphorylating MuSK | phosphorylation level of MuSK versus control [2, 8]: higher phosphorylation; also recorded: enhance the phosphorylation level of MUSK | phosphatase activity of PTP-sigma (inhibition) (PTPσ-oxidized; [6]): most actively inhibited | Ki (PTPσ-oxidized; read-out: PTPσ-oxidized Ki): 4 µM | effect on cell vitality (C2C12 cells): did not exhibit an adverse effect on cell vitality

SMILES: COc1ccc([B-](F)(F)c2ccc(OC)cc2)cc1 [CL-60]
Ki [1, 7]: > 1000 µM | Ki ([1]; read-out: LAR-oxidized Ki): > 1000 µM

SMILES: O=C(Nc1ccc2c(c1)B(O)OCC2)c1ccc(F)cc1 [Compound S-6]
Ki [1, 4]: > 1000 µM | Ki ([1]; read-out: LAR-oxidized Ki): > 1000 µM

SMILES: F[B-](F)(F)c1ccc(-c2ccccc2)cc1 [CL-70]
Ki ([1]; read-out: LAR-oxidized Ki): > 1000 µM

SMILES: F[B-](F)(c1ccc(Cl)cc1)c1ccc(Cl)cc1 [CL-61]
Ki [1, 7]: 4 µM

SMILES: F[B-](F)(c1ccc(Cl)cc1)c1ccc(-c2ccccc2)cc1 [CL-83]
hydrolysis or degradation by 19F and 11B NMR [3]: no hydrolysis or degradation

SMILES: Fc1ccc([B-](F)(F)c2ccc(-c3ccccc3)cc2)cc1 [CL-76]
Ki [1, 7]: 1 µM | Ki ([1]; read-out: LAR-oxidized Ki): 1 µM | phosphorylation level of MuSK versus control [2, 8]: higher phosphorylation; also recorded: enhance the phosphorylation level of MUSK

SMILES: Nc1ccc2c(c1)B(O)OCC2 [Compound B-14]
Ki [1, 4]: 57 µM | Ki (PTPσ-oxidized; read-out: PTPσ-oxidized Ki): 100 µM

More lines, main results first:

Ki [1, 4]: 500 µM
SMILES: OB1OCCc2ccccc21 [Compound S-4]

Ki ([1]; read-out: LAR-oxidized Ki): > 1000 µM | Ki (PTPσ-oxidized): > 1000 µM
SMILES: OB1OCc2ccccc21 [Compound B-1]

Ki [1, 4]: > 1000 µM | Ki ([1]; read-out: LAR-oxidized Ki): > 1000 µM | Ki (PTPσ-oxidized; read-out: PTPσ-oxidized Ki): > 1000 µM
SMILES: OB1OCCc2cc(F)ccc21 [Compound B-5]

Ki ([1]; read-out: LAR-oxidized Ki): > 1000 µM | Ki (PTPσ-oxidized; read-out: PTPσ-oxidized Ki): > 1000 µM
SMILES: OB1OCc2cc(F)ccc21 [Compound B-7]

Ki [1, 7]: 4 µM
SMILES: Fc1ccc([B-](F)(F)c2ccc(F)cc2)cc1 [CL-65]

Ki [1, 5]: 1 µM
SMILES: OB(c1ccc(F)cc1)c1ccc(-c2ccccc2)cc1 [CL-73-2]
phosphorylation level of MuSK versus control [2, 8]: higher phosphorylation; also recorded: enhance the phosphorylation level of MUSK
